# Reference: patent US11566007B2, “Ras inhibitors” (Revolution Medicines, Inc., priority 2019, dated 2023)
# Where two headings read alike, the source gives them in different places.
# What was measured:
# KRAS WT = KRAS WT (Homo sapiens (Human), UniProt P01116+P62937); experiment: Ras-Raf (BRAF RBD) disruption / FRET / MOA assay, KRAS WT; format: biochemical
# Method in brief: (§1)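 Ras:RAF disruption was scored as a fall in TR-FRET ratio relative to DMSO. Compound ranged in 3-fold steps over 10 points from 30 μM final; incubation ran 3 h at 25° C, detection antibodies a further 1.5 h. Reported as IC50.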
# K-Ras G12C = K-Ras G12C (Homo sapiens (Human), UniProt P01116+P62937, G12C); experiment: Ras-Raf (BRAF RBD) disruption / FRET / MOA assay, KRAS G12C; format: biochemical; conditions: KRAS G12C, Ras-Raf disruption/FRET/MOA assay
# Chain of K-Ras G12C (P01116-2 other isoform, or with tags, fused parts or gaps G12C): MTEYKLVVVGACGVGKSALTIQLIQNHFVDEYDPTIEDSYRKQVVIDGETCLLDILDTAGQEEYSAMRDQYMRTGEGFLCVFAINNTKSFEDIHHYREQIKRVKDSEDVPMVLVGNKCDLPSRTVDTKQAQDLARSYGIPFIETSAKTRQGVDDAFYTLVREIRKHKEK
# Chain of K-Ras G12C (P62937 whole entry): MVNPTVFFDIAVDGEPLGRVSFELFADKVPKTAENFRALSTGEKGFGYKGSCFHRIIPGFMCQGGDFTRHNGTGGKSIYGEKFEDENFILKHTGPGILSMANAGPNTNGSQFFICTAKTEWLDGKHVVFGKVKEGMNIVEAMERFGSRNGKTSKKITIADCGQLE
# Method in brief: as §1
# [1] = read-out: IC50* KRAS WT FRET data
# [2] = read-out: IC50* KRAS G12C FRET data
# Chain of KRAS WT (P01116-2 other isoform, or with tags, fused parts or gaps): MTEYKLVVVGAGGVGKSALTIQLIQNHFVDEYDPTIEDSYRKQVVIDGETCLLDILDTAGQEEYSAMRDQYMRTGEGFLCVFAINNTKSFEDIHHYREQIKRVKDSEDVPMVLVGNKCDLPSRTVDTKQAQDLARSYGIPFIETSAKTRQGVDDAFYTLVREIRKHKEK
# Chain of KRAS WT (P62937 whole entry): as the sequence (P62937 whole entry) above
Compound,IC50 (KRAS WT; [1]),IC50 (K-Ras G12C; [2]),IC50 (KRAS WT; IC50* KRAS WT FRET data),IC50 (K-Ras G12C; IC50* KRAS G12C FRET data)
"C=CC(=O)Nc1ccc(C(=O)N(C)[C@H](C(=O)N[C@H]2Cc3cc(O)cc(c3)-c3ccc4c(c3)c(c(-c3cccnc3[C@H](C)OC)n4CC)CC(C)(C)COC(=O)[C@@H]3CCCN(N3)C2=O)C(C)C)nc1 (atropisomer, axis not shown) [Example A252]",100 to 1000 nM,10 to 100 nM,,
"C=CC(=O)N1CCN(C(=O)N(C)[C@H](C(=O)N[C@H]2Cc3cc(O)cc(c3)-c3ccc4c(c3)c(c(-c3cccnc3[C@H](C)OC)n4CC)CC(C)(C)COC(=O)[C@@H]3CCCN(N3)C2=O)C(C)C)CC1 (atropisomer, axis not shown) [Example A262]",10 to 100 nM,10 to 100 nM,,
"C=CS(=O)(=O)N1CC2(CCN([C@H](C(=O)N[C@H]3Cc4cc(O)cc(c4)-c4ccc5c(c4)c(c(-c4cccnc4[C@H](C)OC)n5CC)CC(C)(C)COC(=O)[C@@H]4CCCN(N4)C3=O)C(C)C)C2=O)C1 (atropisomer, axis not shown) [Example A297]",10 to 100 nM,10 to 100 nM,,
"C=CC(=O)N1CC[C@H](C(=O)N(C)[C@H](C(=O)N[C@H]2Cc3cccc(c3)-c3ccc4c(c3)c(c(-c3cccnc3[C@H](C)OC)n4CC(F)(F)F)CC(C)(C)COC(=O)[C@@H]3CCCN(N3)C2=O)C(C)C)C1 (atropisomer, axis not shown) [Example A332]",1000 to 10000 nM,10 to 100 nM,,
"C=CC(=O)N1CC[C@H](C(=O)N(C)[C@H](C(=O)N[C@H]2Cc3cc(F)cc(c3)-c3ccc4c(c3)c(c(-c3cccnc3[C@H](C)OC)n4CC)CC(C)(C)COC(=O)[C@@H]3CCCN(N3)C2=O)C(C)C)C1 (atropisomer, axis not shown) [Example A342]",1000 to 10000 nM,10 to 100 nM,,
"CCn1c(-c2cccnc2[C@H](C)OC)c2c3cc(ccc31)-c1cccc(c1)C[C@H](NC(=O)[C@@H](COC1CN(C(=O)C#CC(C)(C)N3CCC3)C1)C(C)C)C(=O)N1CCC[C@H](N1)C(=O)OCC(C)(C)C2 (atropisomer, axis not shown) [Example A346]",> 10000 nM,< 10 nM,,
"CO[C@@H](C)c1ncccc1-c1c2c3cc(ccc3n1CC(F)(F)F)-c1cc(F)cc(c1)C[C@H](NC(=O)[C@@H](COC1CN(C(=O)C#CC(C)(C)N(C)C)C1)C(C)C)C(=O)N1CCC[C@H](N1)C(=O)OCC(C)(C)C2 (atropisomer, axis not shown) [Example A348]",1000 to 10000 nM,< 10 nM,,
"CCn1c(-c2cccnc2[C@H](C)OC)c2c3cc(ccc31)-c1cccc(c1)C[C@H](NC(=O)[C@H](C(C)C)N1CO[C@]3(CCN(C(=O)C#CC(C)(C)N4CCC4)C3)C1=O)C(=O)N1CCC[C@H](N1)C(=O)OCC(C)(C)C2 (atropisomer, axis not shown) [Example A351]",100 to 1000 nM,< 10 nM,,
"C=CC(=O)N1CC[C@@]2(CCN(C(=O)N(C)[C@H](C(=O)N[C@H]3Cc4nc(cs4)-c4ccc5c(c4)c(c(-c4cccnc4[C@H](C)OC)n5CC)CC(C)(C)COC(=O)[C@@H]4CCCN(N4)C3=O)C(C)C)C2)C1 (atropisomer, axis not shown) [Example A367]",10 to 100 nM,10 to 100 nM,,
"C=CC(=O)N(C)CC1CN(C(=O)N(C)[C@H](C(=O)N[C@H]2Cc3nc(cs3)-c3ccc4c(c3)c(c(-c3cccnc3[C@H](C)OC)n4CC)CC(C)(C)COC(=O)[C@@H]3CCCN(N3)C2=O)C(C)C)C1 (atropisomer, axis not shown) [Example A368]",100 to 1000 nM,10 to 100 nM,,
"C=CC(=O)N1CC[C@]2(C1)OCN([C@H](C(=O)N[C@H]1Cc3cccc(c3)-c3ccc4c(c3)c(c(-c3cccnc3[C@H](C)OC)n4CC)CC(C)(C)COC(=O)[C@@H]3CCCN(N3)C1=O)C(C)C)C2=O (atropisomer, axis not shown) [Example A371]",1000 to 10000 nM,10 to 100 nM,,
"CO[C@@H](C)c1ncccc1-c1c2c3cc(ccc3n1CC(F)(F)F)N1CCO[C@@H](C[C@H](NC(=O)[C@@H](COC3CN(C(=O)C#CC(C)(C)N(C)C)C3)C(C)C)C(=O)N3CCC[C@H](N3)C(=O)OCC(C)(C)C2)C1 (atropisomer, axis not shown) [Example A375, (2R)-2-(((1-(4-(dimethylamino)-4-methylpent-2-ynoyl)azetidin-3-yl)oxy)methyl)-N-((2^2S,6^3S,4S)-1^2-(2-((S)-1-methoxyethyl)pyridin-3-yl)-10,10-dimethyl-5,7-dioxo-1^1-(2,2,2-trifluoroethyl)-6^1,6^2,6^3,6^4,6^5,6^6-hexahydro-1^1H-8-oxa-2(4,2)-morpholina-1(5,3)-indola-6(1,3)-pyridazinacycloundecaphane-4-yl)-3-methylbutanamide]",1000 to 10000 nM,< 10 nM,,
"C=CC(=O)N(C)[C@@H]1CCCN(C(=O)N(C)[C@H](C(=O)N[C@H]2Cc3nc(cs3)-c3ccc4c(c3)c(c(-c3cccnc3[C@H](C)OC)n4CC)CC(C)(C)COC(=O)[C@@H]3CCCN(N3)C2=O)C(C)C)C1 (atropisomer, axis not shown) [Example A382]",10 to 100 nM,10 to 100 nM,,
"C=CC(=O)N(C)C1CCN(C(=O)N(C)[C@H](C(=O)N[C@H]2Cc3nc(cs3)-c3ccc4c(c3)c(c(-c3cccnc3[C@H](C)OC)n4CC)CC(C)(C)COC(=O)[C@@H]3CCCN(N3)C2=O)C(C)C)CC1 (atropisomer, axis not shown) [Example A383]",10 to 100 nM,10 to 100 nM,,
"C=CC(=O)N1C[C@@H](C)N(C(=O)N(C)[C@H](C(=O)N[C@H]2Cc3nc(cs3)-c3ccc4c(c3)c(c(-c3cccnc3[C@H](C)OC)n4CC)CC(C)(C)COC(=O)[C@@H]3CCCN(N3)C2=O)C(C)C)[C@H](C)C1 (atropisomer, axis not shown) [Example A388]",< 10 nM,< 10 nM,,
"C=CC(=O)N1C[C@@H]2CN(C(=O)N(C)[C@H](C(=O)N[C@H]3Cc4nc(cs4)-c4ccc5c(c4)c(c(-c4cccnc4[C@H](C)OC)n5CC)CC(C)(C)COC(=O)[C@@H]4CCCN(N4)C3=O)C(C)C)C[C@@H]2C1 (atropisomer, axis not shown) [Example A389]",10 to 100 nM,10 to 100 nM,,
"C=CC(=O)N(C)[C@@H]1CCN(C(=O)N(C)[C@H](C(=O)N[C@H]2Cc3nc(cs3)-c3ccc4c(c3)c(c(-c3cccnc3[C@H](C)OC)n4CC)CC(C)(C)COC(=O)[C@@H]3CCCN(N3)C2=O)C(C)C)C1 (atropisomer, axis not shown) [Example A416]",100 to 1000 nM,10 to 100 nM,,
"C=CC(=O)N1CC[C@H](C(=O)N(C)[C@H](C(=O)N[C@H]2Cc3coc(n3)-c3ccc4c(c3)c(c(-c3cccnc3[C@H](C)OC)n4CC)CC(C)(C)COC(=O)[C@@H]3CCCN(N3)C2=O)C(C)C)C1 (atropisomer, axis not shown) [Example A468]",1000 to 10000 nM,100 to 1000 nM,,
"C=CC(=O)N1CCN(C(=O)N(C)[C@H](C(=O)N[C@H]2Cc3nc(cs3)-c3ccc4c(c3)c(c(-c3cccnc3[C@H](C)OC)n4CC)CC(C)(C)COC(=O)[C@@H]3CCCN(N3)C2=O)C(C)C)CC1 (atropisomer, axis not shown) [Example A491]",10 to 100 nM,10 to 100 nM,,
"C=CC(=O)N1CC[C@H](C(=O)N(C)[C@H](C(=O)N[C@H]2Cc3nc(cs3)-c3ccc4c(c3)c(c(-c3cccnc3[C@H](C)OC)n4CC(F)(F)F)CC(C)(C)COC(=O)[C@@H]3CCCN(N3)C2=O)C(C)C)C1 (atropisomer, axis not shown) [Example A502]",1000 to 10000 nM,100 to 1000 nM,,
"C=CC(=O)N1CC[C@H](C(=O)N(C)[C@H](C(=O)N[C@H]2Cc3cc(CF)cc(c3)-c3ccc4c(c3)c(c(-c3cccnc3[C@H](C)OC)n4CC)CC(C)(C)COC(=O)[C@@H]3CCCN(N3)C2=O)C(C)C)C1 (atropisomer, axis not shown) [Example A503]",1000 to 10000 nM,10 to 100 nM,,
"C=CC(=O)N1CC[C@H](C(=O)N(C)[C@H](C(=O)N[C@H]2Cc3cccc(c3)-c3ccc4c(c3)c(c(-c3cc(CN(C)C)cnc3[C@H](C)OC)n4CC)CC(C)(C)COC(=O)[C@@H]3CCCN(N3)C2=O)C(C)C)C1 (atropisomer, axis not shown) [Example A522]",1000 to 10000 nM,100 to 1000 nM,,
"C=CC(=O)N1CCO[C@H]2CN(C(=O)N(C)[C@H](C(=O)N[C@H]3Cc4cc(C(F)F)cc(n4)-c4ccc5c(c4)c(c(-c4cccnc4[C@H](C)OC)n5CC(F)(F)F)CC(C)(C)COC(=O)[C@@H]4CCCN(N4)C3=O)C(C)C)C[C@H]21 (atropisomer, axis not shown) [Example A540]",,,1000 to 10000 nM,100 to 1000 nM
"C=CC(=O)N1CCO[C@@H]2CN(C(=O)N(C)[C@H](C(=O)N[C@H]3Cc4nc(cs4)-c4ccc5c(c4)c(c(-c4cccnc4[C@H](C)OC)n5CC)CC(C)(C)COC(=O)[C@@H]4CCCN(N4)C3=O)C(C)C)C[C@H]21 (atropisomer, axis not shown) [Example A543]",100 to 1000 nM,< 10 nM,,
"C=CC(=O)N1CCO[C@H]2CN(C(=O)N(C)[C@H](C(=O)N[C@H]3Cc4nc(cs4)-c4ccc5c(c4)c(c(-c4cccnc4[C@H](C)OC)n5CC)CC(C)(C)COC(=O)[C@@H]4CCCN(N4)C3=O)C(C)C)C[C@@H]21 (atropisomer, axis not shown) [Example A544]",100 to 1000 nM,< 10 nM,,
"C=CC(=O)N1CCOC2(CCN(C(=O)N(C)[C@H](C(=O)N[C@H]3Cc4nsc(n4)-c4ccc5c(c4)c(c(-c4cccnc4[C@H](C)OC)n5CC)CC(C)(C)COC(=O)[C@@H]4CCCN(N4)C3=O)C(C)C)CC2)C1 (atropisomer, axis not shown) [Example A545]",100 to 1000 nM,10 to 100 nM,,
"C=CC(=O)N1CC[C@@H]2[C@H]1CN2C(=O)N(C)[C@H](C(=O)N[C@H]1Cc2nc(cs2)-c2ccc3c(c2)c(c(-c2cccnc2[C@H](C)OC)n3CC)CC(C)(C)COC(=O)[C@@H]2CCCN(N2)C1=O)C(C)C (atropisomer, axis not shown) [Example A546]",1000 to 10000 nM,100 to 1000 nM,,
